Experimental data as given in patent publication US20240309059A1, “PEPTIDE HAVING ANTI-VIRAL ACTIVITY, ANTI-VIRAL AGENT COMPRISING SAID PEPTIDE, AND METHOD FOR PRODUCING SAID ANTI-VIRAL AGENT” (National University Corporation Tokyo Medical and Dental …, priority 2021, published 2024).
Ends that are not written are not given here.

Experiments:
[1] = tested on: SARS-COV-2 Indian variant (δ type) (B.1.617.2)
[2] = tested on: SARS-COV-2 UK variant (B.1.1.7)
[3] = tested on: SARS-COV-2 Omicron (sublineage BA.1) variant (B.1.1.529/BA.1)
[4] = tested on: SARS-COV-2 Brazilian variant (P.1)
[5] = biological target: receptor binding domain (RBD) in the SARS-COV-2 UK variant (B.1.1.7) (Severe acute respiratory syndrome coronavirus 2, UniProt P0DTC2, N501Y)
[6] = biological target: receptor binding domain (RBD) in the SARS-COV-2 Brazilian variant (P.1) (Severe acute respiratory syndrome coronavirus 2, UniProt P0DTC2, E484K/K417T/N501Y)
[7] = biological target: receptor binding domain (RBD) in the SARS-COV-2 South African variant (B.1.351) (Severe acute respiratory syndrome coronavirus 2, UniProt P0DTC2, E484K/K417N/N501Y)
[8] = biological target: receptor binding domain (RBD) in the SARS-COV-2 Indian variant (δ type (B.1.617.2)) (Severe acute respiratory syndrome coronavirus 2, UniProt P0DTC2, L452R/T478K)
[9] = biological target: receptor binding domain (RBD) in the SARS-COV-2 Indian variant (κ type (B.1.617.1)) (Severe acute respiratory syndrome coronavirus 2, UniProt P0DTC2, E484Q/L452R)
[10] = biological target: receptor binding domain (RBD) in the SARS-COV-2 Omicron (sublineage BA.1) variant (B.1.1.529/BA.1) (Severe acute respiratory syndrome coronavirus 2, UniProt P0DTC2, E484A/G339D/G446S/G496S/K417N/N440K/N501Y/Q493R/Q498R/S371L/S373P/S375F/S477N/T478K/Y505H)

| Sequence | IC50 [1] [nM] | IC50 [2] [nM] | IC50 [3] [nM] | also measured |
| --- | --- | --- | --- | --- |
| DKEWILQKIYEIMRRLDEEGHGEASLRVSDLIYEFMKRD [Ce59] | 16 |  |  |  |
| DKEWILYKIYEIMVRLDEEGHGEASLMVSDLIYEFMKRD [Ce149] | 0.15 | 0.0021 | 1 |  |
| DKEWILQKIYEIMRRLDEEGHAEASMRVSDLIYEFMKKD [Ce9] |  | 13 |  | IC50 [4]: 1200 nM |
| DKEWILQKIYEIMRRLDEEGHGEASLRVSDLIYEFMKKD [Ce41] |  | 0.68 |  | binding activity to the receptor binding domain (RBD) [5]: high binding activity; dissociation from the RBD once bound [5]: does not dissociate at all; binding activity to the receptor binding domain (RBD) [6]: high binding activity; binding activity to the receptor binding domain (RBD) [7]: high binding activity; binding activity to the receptor binding domain (RBD) [8]: high binding activity; binding activity to the receptor binding domain (RBD) [9]: high binding activity; binding activity to the receptor binding domain (RBD) [10]: cannot maintain binding |
| DKLWILQKIYEIMVRLDEEGHGEASLMVSDLIYEFMKRD [Ce172] | 0.53 | 0.0022 | 0.038 |  |
